From article PMC8540642, “Antineoplastic Activity of Rhus trilobata Nutt. (Anacardiaceae) against Ovarian Cancer and Identification of Active Metabolites in This Pathology” (Plants, 2021)
Converted amounts (≈) assume the structure as drawn. “And” between values parts separate entries of the source, which are not always exact repeats. Equal values may be shown once. Read-outs that look alike come from different tables or passages of the source.

How the values were obtained:
[1] = test system: SKOV-3 cells; test: MTT cell viability, dose-response curves 24 h; type: cell-based, human; conditions: Homo sapiens, read-out: IC50 (half-maximal inhibitory concentration), SKOV-3
Description: (§1) Cultures (2 × 10^4 cells/well) were seeded with 200 μL of supplemented medium (Sigma®) in 96-well plates (Corning®, Corning, NY, USA) and incubated for 24 h. Cell treatments were 5-200 μg/mL of samples/controls for 24 h. At the end of the treatments, we added MTT (5 mg/mL, Sigma®) for 4 h of incubation, and optical density was measured at λ = 590 nm in a VariosKan® Flash (Thermo-Scientific®, Waltham, MA, USA). The half-maximal inhibitory concentration (IC50) was determined.

[2] = test system: BEAS-2B cells; test: MTT cell viability, dose-response curves 24 h; type: cell-based; conditions: for IC50: Homo sapiens, BEAS-2B, read-out: IC50 (half-maximal inhibitory concentration), BEAS-2B
Description: as §1

[3] = test system: CACO-2 cells; test: MTT cell viability, dose-response curves 24 h; type: cell-based; conditions: Homo sapiens, read-out: IC50 (half-maximal inhibitory concentration), CACO-2
Description: as §1

[4] = test system: CHO-K1 cells; test: MTT cell viability, dose-response curves 24 h; type: cell-based; conditions: for IC50: Cricetulus griseus, CHO-K1, 24 h, read-out: IC50 (half-maximal inhibitory concentration), CHO-K1
Description: as §1

[5] = test system: OVCAR-3 cells; test: MTT cell viability, dose-response curves 24 h; type: cell-based; conditions: Homo sapiens, read-out: IC50 (half-maximal inhibitory concentration), OVCAR-3
Description: as §1

[6] = test system: KB cell; design: method as in PMID 4437313; conditions: Ga isolated from RHTR leaves; cited from earlier work
[7] = test system: ovarian cancer tumoral lesions; design: method as in PMID 32276584; conditions: 50 mg/kg, peritumoral route; cited from earlier work
[8] = test system: MCF-7; design: method as in PMID 12781329, PMID 18790750; conditions: MCF-7, 50 μM, G1 phase; cited from earlier work
[9] = SK-OV-3, MTT, 24 h, value in brackets
[10] = Caco-2, MTT, 24 h, value in brackets
[11] = OVCAR-3, MTT, 24 h, value in brackets

SMILES	IC50 ([1]; SK-OV-3, MTT, 24 h) [µg/mL]	IC50 [1, 9] [µM]	IC50 ([2]; MTT, value in brackets) [µM]	IC50 (half-maximal inhibitory concentration), BEAS-2B ([2]; MTT) [µg/mL]	IC50 ([3]; Caco-2, MTT, 24 h) [µg/mL]	IC50 [3, 10] [µM]	IC50 ([4]; MTT, 24 h) [µg/mL]	IC50 ([4]; MTT, 24 h, value in brackets) [µM]	IC50 (half-maximal inhibitory concentration), CHO-K1 ([4]; MTT, 24 h) [µg/mL]	IC50 ([5]; OVCAR-3, MTT, 24 h) [µg/mL]	IC50 [5, 11] [µM]	inhibition of tumoral lesions (of progression) [7] [%]	further results
O=C(O)c1cc(O)c(O)c(O)c1 [Gallic acid, gallic acid]	50	294	147	25 (≈ 147 µM)	25	147	~150	588	100 (≈ 588 µM)	43	253	50	IC50 (half-maximal inhibitory concentration), BEAS-2B ([2]; MTT, listed as Ga): ~ 150 μg/mL; IC50, KB cell viability [6]: 3.1 µg/mL (≈ 18.2 µM)
O=c1c(O)c(-c2ccc(O)c(O)c2)oc2cc(O)cc(O)c12 [Compound 9, quercetin]	> 200	> 662	625	–	150	496	127	420	–	200	662	–	IC50 ([2]; MTT): 189 µg/mL
O=C(OC[C@H]1O[C@@H](OC(=O)c2cc(O)c(O)c(O)c2)[C@H](OC(=O)c2cc(O)c(O)c(O)c2)[C@@H](OC(=O)c2cc(O)c(O)c(O)c2)[C@@H]1OC(=O)c1cc(O)c(O)c(O)c1)c1cc(O)c(O)c(O)c1 [Compound 8, 1,2,3,4,6-pentakis-O-galloyl-β-D-glucose]	–	–	–	–	–	–	–	–	–	–	–	–	cell cycle effect [8]: cell cycle arrest
C[C@@H]1O[C@@H](Oc2c(-c3ccc(O)c(O)c3)oc3cc(O)cc(O)c3c2=O)[C@H](O)[C@H](O)[C@H]1O [Compound 12, quercitrin]	–	–	–	–	–	–	–	–	–	–	–	–	IC50 ([1]; SK-OV-3, 24 h): > 200 µg/mL and > 446 µM; IC50 [2]: > 200 µg/mL and > 446 µM; IC50 ([3]; Caco-2, 24 h): 179 µg/mL and 399 µM; IC50 [4]: > 200 µg/mL and > 446 µM; IC50 ([5]; OVCAR-3, 24 h): > 200 µg/mL and > 446 µM
O=c1c(O)c(-c2cc(O)c(O)c(O)c2)oc2cc(O)cc(O)c12 [Compound 5, myricetin]	166	522	201	64 (≈ 201 µM)	62	195	–	104	33 (≈ 104 µM)	94	295	50	IC50 (half-maximal inhibitory concentration), BEAS-2B ([2]; MTT, listed as Myr): ~ 150 μg/mL; IC50 (half-maximal inhibitory concentration), CHO-K1 ([4]; MTT, 24 h, listed as Myr): ~ 150 μg/mL
